# Biological target: G-protein coupled receptor 35 (Homo sapiens, UniProt Q9HC97)
# Experiment: inhibitors of PMA/ionomycin-induced NF-kB reporter, SAR follow-up, cell-based, PMA/ionomycin inducer, luciferase, set 2 (AID 2792)
# Chain of G-protein coupled receptor 35 (Q9HC97 whole entry): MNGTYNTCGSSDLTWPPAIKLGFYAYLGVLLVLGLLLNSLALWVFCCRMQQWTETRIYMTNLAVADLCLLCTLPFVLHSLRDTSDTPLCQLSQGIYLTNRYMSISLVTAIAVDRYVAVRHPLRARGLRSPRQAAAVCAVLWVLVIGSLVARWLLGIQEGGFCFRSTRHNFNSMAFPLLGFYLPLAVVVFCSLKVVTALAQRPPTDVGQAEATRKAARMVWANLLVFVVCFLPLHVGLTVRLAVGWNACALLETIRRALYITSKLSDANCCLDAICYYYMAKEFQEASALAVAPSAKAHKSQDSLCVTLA
row,SMILES,IC50 [µM]
1,"CCCn1c(SCC(=O)Nc2nc3c(s2)CCCC3)nc2c1c(=O)n(C)c(=O)n2C [2-(1,3-Dimethyl-2,6-dioxo-7-propyl-2,3,6,7-tetrahydro-1H-purin-8-ylsulfanyl)-N-(4,5,6,7-tetrahydro-benzothiazol-2-yl)-acetamide]",17.8
2,CCCCn1c(CN2CCN(c3cccc(Cl)c3)CC2)nc2c1c(=O)n(C)c(=O)n2C [MLS-0004183.0001],3.51

# Source: BindingDB's records for doi:10.7270/Q2C24TWT (Burnham Center For Chemical Genomics, 2010)
